Experiments:
MMP-13 = MMP-13 ELISA in secretions of TNFα-stimulated chondrocytes; format: cell-based, human; settings: for Mean % relative MMP-13 secretion (72h): co-treatment with TNFα, normalized to negative control (TNFα only)
Text: Matrix Mettaloproteinase 13 (MMP-13) is the main culprit in the destabilization of the anabolic/catabolic balance in the articular joint. MMP-13 […] balance towards catabolism and collagen II degradation which aggravates the OA pathology and is an enzyme that is secreted by chondrocytes in the extracellular environment. […] A decrease in MMP-13 levels is desirable, correlates with less degradation of cartilage and is widely used in the OA research field as a histopathological marker to evaluate amelioration of OA cellular pathology in the joint following an intervention. Finding Nanoparticles that can reduce MMP-13 levels in the assay is a promising lead for a favorable effect in a pre-clinical animal model in vivo. […] The results in Table 6 are the mean relative values from at least 3 independent repetitions of the experiments. Table 6. MMP-13 ELISA results as normalized values relative to negative control (NC, TNFα-stimulated cells without nanosystems) from 3 independent experiments. The standard deviations are omitted for simplicity. Samples' coding: S1=Naringin pure compound, S2=Naringin encapsulated in PLA nanoparticles [PLA[NAR]], S3=Naringin encapsulated in PLA nanoparticles coated with chitosan CS[PLA[NAR]], and S4=Blank PLA nanoparticles coated with chitosan, CS[PLA[---]].

[1] = tested on: experimental animal model of osteoarthritis (OA); test: von Frey mechanical allodynia test in osteoarthritis rat model; format: in vivo, Wistar rats; settings: for Paw Withdrawal Threshold (%): right paw/(right paw + left paw)*100
Experimental: Healthy adult male Wistar rats (150-200 g) were used for the study, with water and food ad libitum, at a constant temperature of 22°C and controlled lighting (12 h light/12 h dark cycle). […] As far as the dispersion procedure of the injectables is concerned, all the natural compounds were dissolved in saline solution, whereas the studied nanoparticles were mechanically grinded in a mortar and pestle set with saline solution and Tween 20 (2% w/v) and heated at 36 °C before each treatment. There were six treatments administered every 10 days. At the end of the experiment rats were euthanized and both knees were collected for histological analysis. Rats were anesthetized with chloral hydrate. The right knee joints of Group I were injected with normal saline solution and served as a control. Animals from the groups II, III, IV, V, VI, VII were injected with collagenase type II (Clostridium histolyticum). Collagenase (125 collagen digestion unit/mg) was dissolved in saline, and it was injected intra-articularly into the right knee joint twice on days 1 and 4 of the experiment ([…] and S. Fakurazi. Collagenase and sodium iodoacetate-induced experimental osteoarthritis model in Sprague dawley rats. Asian J. Sci. Res. 2: 1-13, 2009). The left knees of all animals were left untreated as a control. For the evaluation of the effectiveness and time of release of the encapsulated compounds, all animals were subjected to a series of behavioral testing in addition to the measurements of body weight and knees diameter change. The experimental protocol of the present study followed the combination of three different behavioral tests, which are von Frey mechanical allodynia test, grid walking and slope walking test. Behavioral tests are performed in three phases, at the beginning before the start of treatment, in the middle of treatment (approximately 35-40 days) and at the end (after the 70th day). Mechanical allodynia was tested by the von Frey method which detects pain threshold as the paw withdrawal response. For the testing, rats were placed into plastic chambers that allow access to the plantar surface of the hind paws. […] In Table 15 below, the nociceptive threshold is defined as: nociceptive threshold (%) = ([…])/((nociceptive; threshold on right paw + nociceptive threshold of left paw))*100 [formula] Table 13: von Frey-paw withdrawal threshold (g)

CCK-8 viability assay = format: cell-based; settings: human, primary human chondrocytes; read-out: Mean % relative viability
Experimental: b) The viability of human primary chondrocytes was evaluated following incubation with increasing concentrations of either the pure Naringin (S1) or the nanosystems (Samples S2 and S3) at 2-10-50µM of encapsulated Naringin (1:5 serial dilutions) for 72h (higher concentrations were not used because the nanosystems become insoluble and aggregates sediment on the cell monolayer). For S2 this corresponded to 6,4 µg/ml (for 2 µM of Naringin), 32 µg/ml (for 10 µM of Naringin) and 158 µg/ml (for 50 µM of Naringin) respectively, of total NP concentration. For S3 (CS[PLA[NAR]]) the total NP concentrations to provide the same µM of encapsulated Naringin were 14,4 / 72 / 360 µg/m). As control for the nanosystems, a blank PLA nanoparticle preparation coated with chitosan (S4) was used, at the same µg/ml polymer concentration like the ones used to achieve the 2-10-50µM range for Naringin (the difference being that the blank contains no Naringin). Finally, the blank S4 was used at the 14,4/72/360 µg/ml concentration range (1:5 serial dilutions). Following incubation, the CCK-8 viability kit was used according to manufacturer's instructions (Sigma, 96992-500TESTS-F). Macroscopical and microscopical observation confirmed the proper complete solubility and dispersion of the Nanoparticles. Importantly, healthy cell morphology was observed (spindle-like attached cells with several processes) with concomitant absence of undissolved material.
Table 5. Effect of the natural products and the nanosystems on the relative cell viability of primary human chondrocytes. Measurements obtained using the CCK-8 viability kit. Values normalized to positive control (PC; set to 100; arbitrary unit). Samples' coding: S1= pure Naringin, S2=Naringin encapsulated in PLA nanoparticles [PLA[NAR]], S3=Naringin encapsulated in PLA nanoparticles coated with chitosan CS[PLA[NAR]], and S4=Blank PLA nanoparticles coated with chitosan, CS(PLA[---]].

[2] = Body weight in collagenase-induced osteoarthritis rat model; format: in vivo, Wistar rats
Experimental: In order to understand the anti-inflammatory and antioxidant potential of the nanoparticles of the invention in vivo an experimental animal model of osteoarthritis (OA) was established. The OA lesions were caused by matrix degradation of articular cartilage using enzymatic means, such as collagenase type-II. Following the induction of osteoarthritis, the studied nanoparticles were administered for 8 weeks in which period the morphological and behavioral changes were measured and finally histological analysis of the articular cartilage samples concluded the in vivo study.
(§1) Rats were anesthetized with chloral hydrate. The right knee joints of Group I were injected with normal saline solution and served as a control. Animals from the groups II, III, IV, V, VI, VII were injected with collagenase type II (Clostridium histolyticum). Collagenase (125 collagen digestion unit/mg) was dissolved in saline, and it was injected intra-articularly into the right knee joint twice on days 1 and 4 of the experiment (Al-Saffar, F., H. Ganabadi and S. Fakurazi. Collagenase and sodium iodoacetate-induced experimental osteoarthritis model in Sprague dawley rats. Asian J. Sci. Res. 2: 1-13, 2009). The left knees of all animals were left untreated as a control.
Changes in body weight and knee diameter were measured on the 1st, 4th,11th,21st,31st,41st,51st, 61st, 71st day before every injection. Knee diameter was measured using a digital caliper. […] A change in body weight is also measured as one of the parameters to assess the course of the disease in the OA animal models.

[3] = tested on: experimental animal model of osteoarthritis (OA); test: Grid-walking test in osteoarthritis rat model; format: in vivo, Wistar rats
Experimental: as §1
In this test the rats were allowed to explore freely for 4 minutes in a wire grid and when one of the limbs fell below the grid surface during free walking, the observer counted the number of foot-fault errors (footslips) (Starkey, M. L., Barritt, A. W., Yip, P. K., Davies, M., Hamers, F. P. T., McMahon, S. B., & Bradbury, E. J. (2005). Assessing behavioural function following a pyramidotomy lesion of the corticospinal tract in adult mice. Experimental Neurology, 195(2), 524-539. doi:10.1016/j.expneurol.2005.0).

[4] = 40 days (half of experimental protocol)
[5] = 70 days (end of experimental protocol)

Structure (SMILES): C[C@@H]1O[C@@H](O[C@H]2[C@H](Oc3cc(O)c4c(c3)O[C@H](c3ccc(O)cc3)CC4=O)O[C@H](CO)[C@@H](O)[C@@H]2O)[C@H](O)[C@H](O)[C@H]1O [S1 [NAR], Naringin]
- Mean % relative MMP-13 secretion (72h) (MMP-13; 10 µM Naringin (free or encapsulated)): 110,57%
- Mean % relative MMP-13 secretion (72h) (MMP-13; 50 µM Naringin (free or encapsulated)): 113.28%
- Mean % relative MMP-13 secretion (72h) (MMP-13; 200 µM): 102,77%
- decrease in MMP-13 (in words) (MMP-13; TNFα-stimulated chondrocytes): did not give a detectable decrease
- von Frey-paw withdrawal threshold ([1]; 11 days (before treatment)): 63 g
- von Frey-paw withdrawal threshold ([1]; 40 days (half of experimental protocol), 10 mg/kg (S1, ibuprofen i.p.; nanoparticles i.a.)): 81,12 g
- von Frey-paw withdrawal threshold ([1]; 70 days (end of experimental protocol), 10 mg/kg (S1, ibuprofen i.p.; nanoparticles i.a.)): 83,96 g
- von Frey-paw withdrawal threshold ([1]; left-control paw): 88,68 g
- paw withdrawal thresholds after commencement of treatment (in words) ([1]; rat, in vivo): presented an increase
- Paw Withdrawal Threshold (%) ([1]; 11 days (before treatment)): 41,53%
- Paw Withdrawal Threshold (%) [1, 4]: 45,55%
- Paw Withdrawal Threshold (%) [1, 5]: 45,95%
- viability at 72 h, 10 µM (CCK-8 viability assay): 136%
- viability at 72 h, 50 µM (CCK-8 viability assay): 130%
- viability at 72 h, 200 µM (CCK-8 viability assay): 111%
- Body Weight (BW) ([2]; 1st injection CO/saline (before treatment)): 247 g
- Body Weight (BW) ([2]; 1st treatment, 10 mg/kg (S1, ibuprofen i.p.; nanoparticles i.a.), every 10 days): 239 g
- Body Weight (BW) ([2]; 2nd injection CO/saline (before treatment)): 236 g
- Body Weight (BW) ([2]; 2nd treatment, 10 mg/kg (S1, ibuprofen i.p.; nanoparticles i.a.)): 247 g
- Body Weight (BW) ([2]; 3rd treatment, 10 mg/kg (S1, ibuprofen i.p.; nanoparticles i.a.)): 276 g
- Body Weight (BW) ([2]; 4th treatment, 10 mg/kg (S1, ibuprofen i.p.; nanoparticles i.a.)): 294 g
- Body Weight (BW) ([2]; 5th treatment, 10 mg/kg (S1, ibuprofen i.p.; nanoparticles i.a.)): 317 g
- Body Weight (BW) ([2]; 6th treatment, 10 mg/kg (S1, ibuprofen i.p.; nanoparticles i.a.)): 326 g
- % Changes in Body Weight (BW) ([2]; 11 days (before treatment)): -3,2%
- % Changes in Body Weight (BW) [2, 4]: 19,0%
- % Changes in Body Weight (BW) [2, 5]: 34,8%
- Body Weight (BW) ([2]; final, 10 mg/kg (S1, ibuprofen i.p.; nanoparticles i.a.)): 333 g
- Foot fault in grid-walk test (4 min) ([3]; 11 days left paw): 3,4
- Foot fault in grid-walk test (4 min) ([3]; 11 days right paw): 5,6
- Foot fault in grid-walk test (4 min) ([3]; 40 days left paw): 2
- Foot fault in grid-walk test (4 min) ([3]; 40 days right paw): 3
- Foot fault in grid-walk test (4 min) ([3]; 70 days left paw): 2,8
- Foot fault in grid-walk test (4 min) ([3]; 70 days right paw): 2,4

Source: patent EP4385495A1, “NANOSYSTEMS FOR THE ENCAPSULATION OF THERAPEUTIC AGENTS” (National Technical University of Athens, priority 2022, dated 2024)
